This note sets out measurements from EPA's ToxValDB 9.5 (doi:10.2903/j.efsa.2019.5842).

Values after ≈ are worked out from the molar mass of the structure shown.

The subject of one series is Apis mellifera. Particulars: acute, mortality.
The next series has as its system Daphnia magna. Particulars: chronic/long-term; duration: 21 days; reproduction.
The next series has as its system Folsomia candida. The conditions noted are these: chronic/long-term; duration: 28 days; reproduction.
A further series relates to Hyalella azteca. The conditions noted are these: chronic/long-term; duration: 42 days.
For series [1], the system named is Oncorhynchus mykiss. Particulars: acute; duration: 96 hours; mortality.
The next series deals with Oryctolagus sp. Particulars: reproduction developmental; body weight.
Another series concerns Tagia sp. Particulars: chronic/long-term; duration: 56 days; reproduction.
Series [2] has as its system Oncorhynchus mykiss. Briefly: LC10; higher = less toxic. The conditions noted are these: chronic/long-term; mortality.

For the molecule `CCCCN(CC)c1c([N+](=O)[O-])cc(C(F)(F)F)cc1[N+](=O)[O-]` [Benfluralin], the LD50 was above 100 µg/piece in the series with Apis mellifera (dermal); above 111 µg/piece in the series on Apis mellifera (oral, unspecified); above 2000 mg/kg-day in the series on Colinus virginianus (acute, oral, mortality); above 5000 mg/kg-day in the series with Rattus norvegicus (acute, oral, mortality). This molecule registered an NOEL in the series with Colinus virginianus (reproduction developmental) of 6.7 mg/kg-day. For the same molecule, the NOEC in the series on Daphnia magna is 0.046 mg/L; in the series on Folsomia candida, 5.5 mg/kg; with Hyalella azteca, 83 mg/kg; in the series with Tagia sp. it was 15.4 mg/kg. In the series on Oncorhynchus mykiss [1], the LC50 (as a rule, the concentration lethal to half of the exposed cells or organisms) stood at 0.081 µg/mL (≈ 0.242 µM). For the same molecule, the NOAEL – broadly, the highest dose or exposure tested at which no adverse effect was seen – in the series on Oryctolagus sp. turned out to be 50 mg/kg-day; in the series on Rattus norvegicus (chronic, duration: 2 years, histopathology: nonneoplastic) it was 0.5 mg/kg-day; in the series on Rattus norvegicus (reproduction developmental, body weight), 5.5 mg/kg-day. In the series with Oncorhynchus mykiss [2], this molecule came in with an LC10 of 0.0013 µg/mL (≈ 0.00388 µM).
